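Cultured in 96-well plates, cells were exposed to test compound for 48 hours across five concentrations. Here, GI50 denotes the concentration required for 50% inhibition of growth.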 The source made the active and inactive calls. Cut-off read from the data, not from the text of the source: active = GI50 up to about 1.1 µM and inactive = higher.
Columns and labels:
Assay in all cases: NCI anticancer screen, dose series, 48 h
[1] = test system: SW-620
[2] = test system: MDA-MB-435
[3] = test system: Malme-3M
[4] = test system: 786-0
[5] = test system: M14
[6] = test system: COLO 205
[7] = test system: RXF 393
[8] = test system: RPMI-8226
[9] = test system: DU-145
[10] = test system: TK-10
[11] = test system: OVCAR-3
[12] = test system: EKVX
[13] = test system: NCI-H226
[14] = test system: U-251
[15] = test system: T47D
[16] = test system: OVCAR-4
[17] = test system: MDA-N
[18] = test system: UACC-62
[19] = test system: UACC-257
[20] = test system: LOX IMVI
[21] = test system: SNB-19
[22] = test system: MCF7
[23] = test system: PC-3
[24] = test system: HT-29
[25] = test system: SF-295
[26] = test system: NCI-H522
[27] = test system: OVCAR-8
[28] = test system: SK-MEL-5
[29] = test system: A549
[30] = test system: NCI-H23
[31] = test system: ACHN
[32] = test system: CCRF-CEM
[33] = test system: BT-549
[34] = test system: CAKI-1
[35] = test system: MDA-MB-231
[36] = test system: MOLT-4
[37] = test system: SK-OV-3
[38] = test system: NCI/ADR-RES
[39] = test system: HOP-62
[40] = test system: IGROV-1
[41] = test system: UO-31
[42] = test system: SF-268
[43] = test system: HCT-15
[44] = test system: Hs-578T
[45] = test system: OVCAR-5
[46] = test system: KM12
[47] = test system: SF-539
[48] = test system: HOP-92
[49] = test system: SR
[50] = test system: HCT-116
[51] = test system: SN12C
[52] = test system: SK-MEL-2
[53] = test system: HCC 2998
[54] = test system: SK-MEL-28
[55] = test system: HL-60
[56] = test system: A498
[57] = test system: SNB-75
[58] = test system: NCI-H460
[59] = test system: K562

In the case of `O=C1NC(N2CCCCC2)=N/C1=C\c1ccc(Cl)cc1`, the GI50 [1] was 68.4 µM (inactive), the GI50 [2] was 60.4 µM (inactive) and the GI50 [3] was 16.5 µM (inactive). For the same molecule, the GI50 [4] was 28.7 µM (inactive), the GI50 [5] was 66.8 µM (inactive) and the GI50 [6] was 74.5 µM (inactive). For the same molecule, the GI50 [7] was > 100 µM (inactive), the GI50 [8] was 66.2 µM (inactive) and the GI50 [9] was 44.1 µM (inactive). For the same molecule, the GI50 [10] was 30.2 µM (inactive), the GI50 [11] was 26.4 µM (inactive) and the GI50 [12] was 26.3 µM (inactive). For the same molecule, the GI50 [13] was 22.3 µM (inactive), the GI50 [14] was 44.5 µM (inactive) and the GI50 [15] was 41.5 µM (inactive). For the same molecule, the GI50 [16] was 68.4 µM (inactive), the GI50 [17] was 71 µM (inactive) and the GI50 [18] was 26.5 µM (inactive). The GI50 [19] was 36.6 µM (inactive), the GI50 [20] was 34.5 µM (inactive) and the GI50 [21] was 37 µM (inactive). For the same molecule, the GI50 [22] was 47.2 µM (inactive), the GI50 [23] was 37.1 µM (inactive) and the GI50 [24] was 16.6 µM (inactive). The GI50 [25] was 60.5 µM (inactive), the GI50 [26] was 21 µM (inactive) and the GI50 [27] was 20.2 µM (inactive). For the same molecule, the GI50 [28] was 35.5 µM (inactive), the GI50 [29] was 38.5 µM (inactive) and the GI50 [30] was 37.2 µM (inactive). The GI50 [31] was 36.4 µM (inactive), the GI50 [32] was 39.7 µM (inactive) and the GI50 [33] was 71.4 µM (inactive). For the same molecule, the GI50 [34] was > 100 µM (inactive), the GI50 [35] was 34.1 µM (inactive) and the GI50 [36] was > 100 µM (inactive). For the same molecule, the GI50 [37] was > 100 µM (inactive), the GI50 [38] was 22 µM (inactive) and the GI50 [39] was 46.7 µM (inactive). The GI50 [40] was 25.9 µM (inactive), the GI50 [41] was 34.7 µM (inactive) and the GI50 [42] was 38.2 µM (inactive). The GI50 [43] was 43.1 µM, the GI50 [44] was 28.5 µM (inactive) and the GI50 [45] was > 100 µM (inactive). For the same molecule, the GI50 [46] was 25.1 µM (inactive), the GI50 [47] was 94 µM (inactive) and the GI50 [48] was 13 µM (inactive). For the same molecule, the GI50 [49] was > 100 µM (inactive), the GI50 [50] was 26.5 µM (inactive) and the GI50 [51] was 72.6 µM (inactive). For the same molecule, the GI50 [52] was > 100 µM (inactive), the GI50 [53] was 19.8 µM (inactive) and the GI50 [54] was 92 µM (inactive). The GI50 [55] was > 100 µM (inactive).
With `Nc1ccc(-c2nc3cc(F)ccc3s2)cc1CO` the GI50 [1] was > 100 µM (inactive), the GI50 [56] was 0.0102 µM (active) and the GI50 [57] was 19.2 µM (inactive). The GI50 [2] was > 100 µM (inactive), the GI50 [3] was > 72.3 µM (inactive) and the GI50 [4] was 30.9 µM (inactive). The GI50 [5] was > 49.5 µM (inactive), the GI50 [6] was > 100 µM (inactive) and the GI50 [7] was 15.5 µM (inactive). For the same molecule, the GI50 [8] was > 100 µM (inactive), the GI50 [9] was > 78.9 µM (inactive) and the GI50 [11] was 36.2 µM (inactive). For the same molecule, the GI50 [12] was 17.8 µM (inactive), the GI50 [13] was 0.0219 µM (active) and the GI50 [14] was 16.4 µM (inactive). The GI50 [15] was 0.0116 µM (active), the GI50 [16] was > 100 µM (inactive) and the GI50 [17] was > 100 µM (inactive). The GI50 [18] was 19.4 µM (inactive), the GI50 [19] was > 69.3 µM (inactive) and the GI50 [20] was 62.7 µM (inactive). The GI50 [21] was 27.1 µM (inactive), the GI50 [58] was 3.04 µM (inactive) and the GI50 [22] was < 0.01 µM (active). The GI50 [23] was 29.8 µM (inactive), the GI50 [24] was > 100 µM (inactive) and the GI50 [25] was 14.4 µM (inactive). For the same molecule, the GI50 [26] was 41.7 µM (inactive), the GI50 [27] was 28.6 µM (inactive) and the GI50 [28] was > 96.8 µM (inactive). The GI50 [29] was > 69 µM (inactive), the GI50 [30] was 0.436 µM (active) and the GI50 [31] was 25.3 µM (inactive). For the same molecule, the GI50 [59] was > 100 µM (inactive), the GI50 [32] was 89.5 µM (inactive) and the GI50 [33] was 21.2 µM (inactive). The GI50 [34] was > 56.5 µM (inactive), the GI50 [35] was 22.9 µM (inactive) and the GI50 [36] was > 100 µM (inactive). For the same molecule, the GI50 [37] was 16.7 µM (inactive), the GI50 [38] was 53.6 µM (inactive) and the GI50 [39] was 17.5 µM (inactive). The GI50 [40] was < 0.01 µM (active), the GI50 [41] was 18.1 µM (inactive) and the GI50 [42] was 23.8 µM (inactive). The GI50 [43] was 41 µM, the GI50 [44] was 34.4 µM (inactive) and the GI50 [45] was 60.8 µM (inactive). The GI50 [46] was > 100 µM (inactive), the GI50 [47] was 20.1 µM (inactive) and the GI50 [48] was 17.3 µM (inactive). For the same molecule, the GI50 [50] was 53.6 µM (inactive), the GI50 [51] was 32.7 µM (inactive) and the GI50 [52] was 23.9 µM (inactive). The GI50 [53] was 0.313 µM (active), the GI50 [54] was > 100 µM (inactive) and the GI50 [55] was > 76.9 µM (inactive).
For `CN(CCCCN(C)CCc1ccc(Cl)c(Cl)c1)CCCCN1CCCC1`, the GI50 [1] was 1.21 µM (inactive), the GI50 [56] was 1.72 µM (inactive) and the GI50 [57] was 1.73 µM (inactive). For the same molecule, the GI50 [2] was 0.465 µM (active), the GI50 [3] was 1.91 µM (inactive) and the GI50 [4] was 1.25 µM (inactive). For the same molecule, the GI50 [5] was 0.787 µM (active), the GI50 [6] was 1.29 µM (inactive) and the GI50 [7] was 1.32 µM (inactive). For the same molecule, the GI50 [8] was 0.649 µM (active), the GI50 [9] was 2.73 µM (inactive) and the GI50 [10] was 1.61 µM (inactive). For the same molecule, the GI50 [11] was 2.05 µM (inactive), the GI50 [12] was 1.63 µM (inactive) and the GI50 [13] was 2.26 µM (inactive). The GI50 [14] was 0.745 µM (active), the GI50 [15] was 2 µM (inactive) and the GI50 [16] was 1.83 µM (inactive). For the same molecule, the GI50 [17] was 1.26 µM (inactive), the GI50 [18] was 1.93 µM (inactive) and the GI50 [19] was 1.63 µM (inactive). For the same molecule, the GI50 [20] was 0.912 µM (active), the GI50 [21] was 2.26 µM (inactive) and the GI50 [58] was 1.48 µM (inactive). For the same molecule, the GI50 [22] was 1.46 µM (inactive), the GI50 [23] was 1.57 µM (inactive) and the GI50 [24] was 0.494 µM (active). The GI50 [25] was 1.83 µM (inactive), the GI50 [26] was 0.977 µM (active) and the GI50 [27] was 2.09 µM (inactive). The GI50 [28] was 0.902 µM (active), the GI50 [29] was 1.65 µM (inactive) and the GI50 [30] was 1.71 µM (inactive). For the same molecule, the GI50 [31] was 1.91 µM (inactive), the GI50 [59] was 0.877 µM (active) and the GI50 [32] was < 0.0235 µM (active). The GI50 [33] was 1.87 µM (inactive), the GI50 [34] was 1.6 µM (inactive) and the GI50 [35] was 0.75 µM (active). The GI50 [36] was 3.08 µM (inactive), the GI50 [37] was 2.18 µM (inactive) and the GI50 [38] was 3.23 µM (inactive). For the same molecule, the GI50 [39] was 1.83 µM (inactive), the GI50 [40] was 2.2 µM (inactive) and the GI50 [41] was 0.509 µM (active). The GI50 [42] was 1.46 µM (inactive), the GI50 [43] was 1.69 µM and the GI50 [44] was 0.977 µM (active). For the same molecule, the GI50 [45] was 2.36 µM (inactive), the GI50 [46] was 0.705 µM (active) and the GI50 [47] was 1.01 µM (active). For the same molecule, the GI50 [48] was 1.26 µM (inactive), the GI50 [50] was 1.51 µM (inactive) and the GI50 [51] was 1.98 µM (inactive). For the same molecule, the GI50 [52] was 1.63 µM (inactive), the GI50 [53] was 0.195 µM (active) and the GI50 [54] was 0.533 µM (active). For the same molecule, the GI50 [55] was 1.49 µM (inactive).

Source: ChEMBL document CHEMBL1201862, “PubChem BioAssay data set” (2004)
